For eight compounds, IC50 results are on record in BindingDB's records for doi:10.1016/0960-894X(95)00059-3 (1995).

For orientation: pIC50 means the negative decadic logarithm of the IC50, by convention in mol/L.

The structures appear in SMILES notation. pIC50: −log10 of the molar value.

The nature of experiment [1]: Inhibitory activity against HIV-1 RT with poly.rC-oligo.dG template primer.
Experiment [2] concerns the target Reverse transcriptase (Human immunodeficiency virus 2). Kind of experiment: Inhibitory activity against HIV-2 reverse transcriptase.

For the compound `Cc1nc(-c2[nH]c3ccc(Cl)cc3c2S(=O)(=O)c2ccccc2)[nH]c1C` [3-Benzenesulfonyl-5-chloro-2-(4,5-dimethyl-1H-imidazol-2-yl)-1H-indole], the pIC50 in experiment [1] is 8.29; in experiment [2] it was under 3.52.

`O=S(=O)(c1ccccc1)c1c(-n2ccnc2)[nH]c2ccc(Cl)cc12` [3-Benzenesulfonyl-5-chloro-2-imidazol-1-yl-1H-indole] gave a pIC50 in experiment [1] of 5.62.

As to `O=S(=O)(c1ccccc1)c1c(C2=NCCS2)[nH]c2ccc(Cl)cc12` [3-Benzenesulfonyl-5-chloro-2-(4,5-dihydro-thiazol-2-yl)-1H-indole], the figures for the pIC50 in experiment [1] and in experiment [2] were 7.77 and under 3.52, respectively.

Turning to `O=S(=O)(c1ccccc1)c1c(C2=NCCCN2)[nH]c2ccc(Cl)cc12` [3-Benzenesulfonyl-5-chloro-2-(1,4,5,6-tetrahydro-pyrimidin-2-yl)-1H-indole], the pIC50 in experiment [1] was 5.64.

The compound `CC1(C)CN=C(c2[nH]c3ccc(Cl)cc3c2S(=O)(=O)c2ccccc2)N1` [3-Benzenesulfonyl-5-chloro-2-(5,5-dimethyl-4,5-dihydro-1H-imidazol-2-yl)-1H-indole] showed a pIC50 in experiment [1] of 7.30.

In experiment [1], `O=S(=O)(c1ccccc1)c1c(-c2nc3c([nH]2)CCCC3)[nH]c2ccc(Cl)cc12` [2-(3-Benzenesulfonyl-5-chloro-1H-indol-2-yl)-4,5,6,7-tetrahydro-1H-benzoimidazole] gave a pIC50 of 8.09.

`O=S(=O)(c1ccccc1)c1c(C2=N[C@H]3CCCC[C@@H]3N2)[nH]c2ccc(Cl)cc12` [(3aS,7aS)-2-(3-Benzenesulfonyl-5-chloro-1H-indol-2-yl)-3a,4,5,6,7,7a-hexahydro-1H-benzoimidazole]: the pIC50 in experiment [1] was 7.54.

For `CCc1nc(-c2[nH]c3ccc(Cl)cc3c2S(=O)(=O)c2ccccc2)[nH]c1CC` [3-Benzenesulfonyl-5-chloro-2-(4,5-diethyl-1H-imidazol-2-yl)-1H-indole], the pIC50 in experiment [1] was 8.00.
